From patent US20240101589A1, “INHIBITORS OF METTL3” (Strom Therapeutics Limited, priority 2020, published 2024)

What follows are compounds tested on KASUMI-1 cells (assay: Kasumi cell proliferation CTG). Conditions: Homo sapiens, Kasumi 1, 120 h, treated for 120 hours, CellTiter-Glo.
Type: cell-based
Procedure: Cell culture: KASUMI-1 cells (ACC20, Leibniz-Institut DSMZ Deutsche Sammlung von Mikroorganismen und Zellkulturen GmbH) were grown in RPMI 1640 (31870-025, Gibco) supplemented with 20% fetal bovine serum (F1524, Gibco), 1 mM sodium pyruvate (11360-039, Gibco) and 2 mM Glutamax (35050-038, Gibco) in a 5% CO2 humidified incubator at 37° C.
Cell treatment and cell growth assessment: KASUMI-1 cells were seeded in ultra-low attachment 384-well culture plate (MS-9384WZ, SBio) at a final concentration of 250 000 cells/ml (35 μL/well) and treated for 120 hours with compounds inhibiting the METTL3/14 activity (10 serial semi-log dilutions, 30 μM as top concentration). Upon treatment, Kasumi1 cells were incubated for 10 min at RT with the CellTiter-Glo reagent (G7571, Promega). Measurement of the luminescence signal was performed on a microplate reader (Ensight, PerkinElmer).
`Nc1ncnc2c1c(Br)cn2[C@@H]1O[C@H](/C=C/CCCNCC2CC(F)(F)C2)[C@@H](O)[C@H]1O` [Example 4, (2R,3R,4S,5R)-2-{4-amino-5-bromo-7H-pyrrolo[2,3-d]pyrimidin-7-yl}-5-[(1E)-5-{[(3,3-difluorocyclobutyl)methyl]amino}pent-1-en-1-yl]oxolane-3,4-diol] was tested, and the IC50 was 4.8 µM. `Nc1ncnc2c1c(Br)cn2[C@@H]1O[C@H](/C=C/C2CC(N)C2)[C@@H](O)[C@H]1O` (stereo partly drawn) [Example 17, (2R,3R,4S,5R)-2-{4-amino-5-bromo-7H-pyrrolo[2,3-d]pyrimidin-7-yl}-5-[(1E)-2-(3-aminocyclobutyl)ethenyl]oxolane-3,4-diol] showed an IC50 of 12.4 µM.

Same assay, conditions: treated for 120 hours, CellTiter-Glo
`Nc1ncnc2c1c(Br)cn2[C@@H]1O[C@H](/C=C/CCCNCc2ccccc2)[C@@H](O)[C@H]1O` [Example 1, (2R,3R,4S,5R)-2-(4-amino-5-bromo-7H-pyrrolo[2,3-d]pyrimidin-7-yl)-5-((E)-5-(benzylamino)pent-1-en-1-yl)tetrahydrofuran-3,4-diol] gave an IC50 of 4.9 µM.

Each compound was assayed on Caov-3 cells (assay: Caov3 cell proliferation CTG). Conditions: Homo sapiens, treated for 120 hours, CellTiter-Glo.
Type: cell-based
Procedure: Cell treatment and cell growth assessment: 18 hours post-seeding in white 384-Viewplate (6007480, PerkinElmer) at 1500 cells/well, Caov3 cells were treated for 120 hours with compounds inhibiting the METTL3/14 activity (10 serial semi-log dilutions, 30 μM as top concentration). Upon treatment, Coav-3 cells were incubated for 10 min at RT with the CellTiter-Glo reagent (G7571, Promega). Measurement of the luminescence signal was performed on a microplate reader (Ensight, PerkinElmer).
`Nc1ncnc2c1c(-c1cc[nH]n1)cn2[C@@H]1O[C@H](/C=C/CCCNCC23CC(F)(C2)C3)[C@@H](O)[C@H]1O` [Example 20, (2R,3R,4S,5R)-2-[4-amino-5-(1H-pyrazol-3-yl)-7H-pyrrolo[2,3-d]pyrimidin-7-yl]-5-[(1E)-5-[({3-fluorobicyclo[1.1.1]pentan-1-yl}methyl)amino]pent-1-en-1-yl]oxolane-3,4-diol] gave an IC50 of 1.69 µM.

These compounds were tested against METTL3/14 (Homo sapiens (Human), UniProt Q86U44) (assay: METTL3/14 methyltransferase assay (RapidFire mass spectrometry, RFMS)). Conditions: 5 nM METTL3/14, 0.2 μM RNA substrate, 0.5 μM SAM, 60 minutes at room temperature.
METTL3/14, sequence (Q86U44 whole entry): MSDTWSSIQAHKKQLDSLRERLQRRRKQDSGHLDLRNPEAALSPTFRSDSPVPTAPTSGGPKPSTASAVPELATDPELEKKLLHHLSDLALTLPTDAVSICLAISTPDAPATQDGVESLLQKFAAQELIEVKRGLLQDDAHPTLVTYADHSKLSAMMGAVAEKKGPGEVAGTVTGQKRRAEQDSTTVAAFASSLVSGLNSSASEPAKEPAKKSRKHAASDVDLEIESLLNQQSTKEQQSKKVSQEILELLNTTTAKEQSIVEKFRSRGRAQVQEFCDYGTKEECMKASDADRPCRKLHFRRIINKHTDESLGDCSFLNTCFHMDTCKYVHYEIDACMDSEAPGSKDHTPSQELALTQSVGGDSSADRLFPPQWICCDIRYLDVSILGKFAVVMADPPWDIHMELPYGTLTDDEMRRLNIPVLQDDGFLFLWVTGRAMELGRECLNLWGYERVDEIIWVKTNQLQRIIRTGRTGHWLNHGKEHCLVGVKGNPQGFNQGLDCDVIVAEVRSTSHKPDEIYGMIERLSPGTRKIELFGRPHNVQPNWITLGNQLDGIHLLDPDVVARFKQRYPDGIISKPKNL
METTL3/14, sequence (Q9HCE5 whole entry partner): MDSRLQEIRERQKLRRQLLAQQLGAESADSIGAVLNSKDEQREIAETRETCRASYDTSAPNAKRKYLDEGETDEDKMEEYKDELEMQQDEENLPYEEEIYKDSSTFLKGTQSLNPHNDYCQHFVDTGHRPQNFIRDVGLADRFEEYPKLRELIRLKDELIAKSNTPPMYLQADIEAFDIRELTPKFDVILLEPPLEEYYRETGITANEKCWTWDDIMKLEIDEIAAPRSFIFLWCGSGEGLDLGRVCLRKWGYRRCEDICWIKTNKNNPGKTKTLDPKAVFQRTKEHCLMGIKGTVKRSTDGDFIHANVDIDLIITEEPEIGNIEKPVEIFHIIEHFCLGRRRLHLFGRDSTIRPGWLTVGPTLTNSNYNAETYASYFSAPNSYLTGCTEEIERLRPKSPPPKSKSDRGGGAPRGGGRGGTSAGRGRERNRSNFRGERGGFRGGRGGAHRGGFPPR
Type: biochemical
Procedure: The enzymatic assay was established to determine IC50 values for inhibition of RNA methyltransferase activity. The enzyme used was full-length his-tagged METTL3 co-expressed with full length FLAG-tagged METTL14 in a baculovirus expression system. Enzymatic reactions were performed at room temperature in 384-well plates using a final reaction volume of 20 μL containing 20 mM TrisCl pH 7.6, 1 mM DTT, 0.01% Tween-20. 5 nM final concentration of METTL3/14 was pre-incubated with various compound concentrations for 10 minutes, followed by addition of 0.2 μM final concentration synthetic RNA substrate (5′P-[…]-3′) and 0.5 μM final concentration S-adenosyl-methionine (SAM). The reaction was incubated for a further 60 minutes at room temperature, and then quenched by the addition of 40 μL 7.5% TCA with two internal product standards (D4-SAH and 13C10-SAH). After termination, plates were sealed, centrifuged and stored at 4° C. until analysis.
RNA methyltransferase activity was measured label free using the RapidFire™ mass spectrometry (RF/MS) platform. Stopped and stable assay plates were analyzed on the Agilent RF300 integrated autosampler/solid-phase extraction (SPE) system coupled to an ABSciex 4000 mass spectrometer for the generation of the product S-adenosyl homocysteine (SAH) and normalized to the ratio of signal of the two internal product standards, respectively. Solvent A was water containing 0.1% (v/v) TCA. Solvent B was acetonitrile/0.1% ammonium acetate (8:2, v/v). More specifically, plates were centrifuged at 4350 rpm for 10 min, samples were aspirated under vacuum for 600 ms, then loaded onto a C18 solid-phase extraction cartridge and washed for 3 s with solvent A at a flow rate of 1.5 mL/min. Retained product and internal standards were eluted with solvent B at a flow rate of 1 mL/min for 3 s and finally the cartridge was re-equilibrated with solvent A for 500 ms. The mass transition for the product (SAH) was 384.9/135.9 Da. Transitions of the two internal product standards (IS1: D4-SAH and IS2: 13C10-SAH) were 389.1/135.8 Da and 395.0/134.2 Da, respectively. Ratios of SAH/IS1 and SAH/IS2 were used for normalization of matrix effects. IC50 values were calculated based on dilution series of individual compounds. Potency of a compound was measured at varied inhibitor concentrations and normalized to control wells without RNA substrate and without inhibition (DMSO only).
Compound `Nc1ncnc2c1c(Br)cn2[C@@H]1O[C@H](/C=C/CCCNCc2ccccc2)[C@@H](O)[C@H]1O` [Example 1, (2R,3R,4S,5R)-2-(4-amino-5-bromo-7H-pyrrolo[2,3-d]pyrimidin-7-yl)-5-((E)-5-(benzylamino)pent-1-en-1-yl)tetrahydrofuran-3,4-diol] has an IC50 of 0.0448 µM. For `Nc1ncnc2c1c(Br)cn2[C@@H]1O[C@H](/C=C/CCNCc2ccccc2)[C@@H](O)[C@H]1O` [Example 3, (2R,3R,4S,5R)-2-{4-amino-5-bromo-7H-pyrrolo[2,3-d]pyrimidin-7-yl}-5-[(1E)-4-(benzylamino)but-1-en-1-yl]oxolane-3,4-diol], the IC50 was 0.317 µM. For `NCC/C=C/[C@H]1O[C@@H](n2cc(Br)c3c(N)ncnc32)[C@H](O)[C@@H]1O` [Example 7, (2R,3R,4S,5R)-2-{4-amino-5-bromo-7H-pyrrolo[2,3-d]pyrimidin-7-yl}-5-[(1E)-4-aminobut-1-en-1-yl]oxolane-3,4-diol], the IC50 was 0.568 µM. `NCCC/C=C/[C@H]1O[C@@H](n2cc(Br)c3c(N)ncnc32)[C@H](O)[C@@H]1O` [Example 8, (2R,3R,4S,5R)-2-{4-amino-5-bromo-7H-pyrrolo[2,3-d]pyrimidin-7-yl}-5-[(1E)-5-aminopent-1-en-1-yl]oxolane-3,4-diol] was tested, and the IC50 was 0.505 µM. In the case of `Nc1ncnc2c1c(Br)cn2[C@@H]1O[C@H](/C=C/C2CNC2)[C@@H](O)[C@H]1O` [Example 13, (2R,3R,4S,5R)-2-{4-amino-5-bromo-7H-pyrrolo[2,3-d]pyrimidin-7-yl}-5-[(1E)-2-(azetidin-3-yl)ethenyl]oxolane-3,4-diol], the IC50 is reported as 0.46 µM. In the case of `Nc1ncnc2c1c(Br)cn2[C@@H]1O[C@H](/C=C/C2CCNCC2)[C@@H](O)[C@H]1O` [Example 14, (2R,3R,4S,5R)-2-{4-amino-5-bromo-7H-pyrrolo[2,3-d]pyrimidin-7-yl}-5-[(1E)-2-(piperidin-4-yl)ethenyl]oxolane-3,4-diol], the IC50 is reported as 0.413 µM. Work on `Nc1ncnc2c1c(Br)cn2[C@@H]1O[C@H](/C=C/C2CCCNC2)[C@@H](O)[C@H]1O` (stereo partly drawn) [Example 15, (2R,3R,4S,5R)-2-{4-amino-5-bromo-7H-pyrrolo[2,3-d]pyrimidin-7-yl}-5-[(1E)-2-(piperidin-3-yl)ethenyl]oxolane-3,4-diol] yielded an IC50 of 0.351 µM. Compound `Nc1ncnc2c1c(Br)cn2[C@@H]1O[C@H](/C=C/C2CCNC2)[C@@H](O)[C@H]1O` (stereo partly drawn) [Example 16, (2R,3R,4S,5R)-2-{4-amino-5-bromo-7H-pyrrolo[2,3-d]pyrimidin-7-yl}-5-[(1E)-2-(pyrrolidin-3-yl)ethenyl]oxolane-3,4-diol] has an IC50 of 0.453 µM. With `Nc1ncnc2c1c(Br)cn2[C@@H]1O[C@H](/C=C/C2CC(N)C2)[C@@H](O)[C@H]1O` (stereo partly drawn) [Example 17, (2R,3R,4S,5R)-2-{4-amino-5-bromo-7H-pyrrolo[2,3-d]pyrimidin-7-yl}-5-[(1E)-2-(3-aminocyclobutyl)ethenyl]oxolane-3,4-diol] the IC50 was 1.31 µM. `Nc1ncnc2c1c(Br)cn2[C@@H]1O[C@H](/C=C/C2COC2)[C@@H](O)[C@H]1O` [Example 18, (2R,3R,4S,5R)-2-{4-amino-5-bromo-7H-pyrrolo[2,3-d]pyrimidin-7-yl}-5-[(1E)-2-(oxetan-3-yl)ethenyl]oxolane-3,4-diol] gave an IC50 of 2.93 µM. `Nc1ncnc2c1c(Br)cn2[C@@H]1O[C@H](/C=C/CC2CNC2)[C@@H](O)[C@H]1O` [Example 19, (2R,3R,4S,5R)-2-{4-amino-5-bromo-7H-pyrrolo[2,3-d]pyrimidin-7-yl}-5-[(1E)-3-(azetidin-3-yl)prop-1-en-1-yl]oxolane-3,4-diol] showed an IC50 of 0.522 µM. `Nc1ncnc2c1c(-c1cc[nH]n1)cn2[C@@H]1O[C@H](/C=C/CCCNCC23CC(F)(C2)C3)[C@@H](O)[C@H]1O` [Example 20, (2R,3R,4S,5R)-2-[4-amino-5-(1H-pyrazol-3-yl)-7H-pyrrolo[2,3-d]pyrimidin-7-yl]-5-[(1E)-5-[({3-fluorobicyclo[1.1.1]pentan-1-yl}methyl)amino]pent-1-en-1-yl]oxolane-3,4-diol] showed an IC50 of 0.0061 µM. `Nc1ncnc2c1c(Br)cn2[C@@H]1O[C@H](/C=C/CCCN2CCC(F)(F)CC2)[C@@H](O)[C@H]1O` [Example 23, (2R,3R,4S,5R)-2-{4-amino-5-bromo-7H-pyrrolo[2,3-d]pyrimidin-7-yl}-5-[(1E)-5-(4,4-difluoropiperidin-1-yl)pent-1-en-1-yl]oxolane-3,4-diol] was tested, and the IC50 was 0.0635 µM. `Nc1ncnc2c1c(Br)cn2[C@@H]1O[C@H](/C=C/CCCN2CCC(F)CC2)[C@@H](O)[C@H]1O` [Example 24, (2R,3R,4S,5R)-2-{4-amino-5-bromo-7H-pyrrolo[2,3-d]pyrimidin-7-yl}-5-[(1E)-5-(4-fluoropiperidin-1-yl)pent-1-en-1-yl]oxolane-3,4-diol] was tested, and the IC50 was 0.231 µM. `Nc1ncnc2c1c(Br)cn2[C@@H]1O[C@H](/C=C/CCCN2CCOCC2)[C@@H](O)[C@H]1O` [Example 25, (2R,3R,4S,5R)-2-{4-amino-5-bromo-7H-pyrrolo[2,3-d]pyrimidin-7-yl}-5-[(1E)-5-(morpholin-4-yl)pent-1-en-1-yl]oxolane-3,4-diol] was tested, and the IC50 was 1.09 µM. With `Nc1ncnc2c1c(Br)cn2[C@@H]1O[C@H](/C=C/CCCN2CCCC(F)C2)[C@@H](O)[C@H]1O` (stereo partly drawn) [Example 26, (2R,3R,4S,5R)-2-{4-amino-5-bromo-7H-pyrrolo[2,3-d]pyrimidin-7-yl}-5-[(1E)-5-(3-fluoropiperidin-1-yl)pent-1-en-1-yl]oxolane-3,4-diol] the IC50 was 0.351 µM. `Nc1ncnc2c1c(Br)cn2[C@@H]1O[C@H](/C=C/CCCNCC23CC(F)(C2)C3)C[C@H]1O` [Example 27, (2R,3R,5S)-2-{4-amino-5-bromo-7H-pyrrolo[2,3-d]pyrimidin-7-yl}-5-[(1E)-5-[({3-fluorobicyclo[1.1.1]pentan-1-yl}methyl)amino]pent-1-en-1-yl]oxolan-3-ol] showed an IC50 of 0.0096 µM. `Nc1ncnc2c1c(Br)cn2[C@@H]1O[C@H](/C=C/CCCNCC23CC(F)(C2)C3)[C@H](F)[C@H]1O` [Example 28, (2R,3S,4R,5R)-2-{4-amino-5-bromo-7H-pyrrolo[2,3-d]pyrimidin-7-yl}-4-fluoro-5-[(1E)-5-[({3-fluorobicyclo[1.1.1]pentan-1-yl}methyl)amino]pent-1-en-1-yl]oxolan-3-ol] was tested, and the IC50 was 0.0197 µM. `Nc1ncnc2c1c(Br)cn2[C@@H]1C[C@H](c2cccc(C(=O)NCC34CC(F)(C3)C4)c2)[C@@H](O)[C@H]1O` [Example 40, 3-[(1R,2R,3S,4R)-4-{4-amino-5-bromo-7H-pyrrolo[2,3-d]pyrimidin-7-yl}-2,3-dihydroxycyclopentyl]-N-({3-fluorobicyclo[1.1.1]pentan-1-yl}methyl)benzamide] showed an IC50 of 7.93 µM. Work on `Nc1ncnc2c1c(Br)cn2[C@@H]1O[C@H](/C=C/CCCNCC23CC(F)(C2)C3)[C@@H](O)[C@H]1F` [Example 41, (2R,3R,4R,5R)-5-{4-amino-5-bromo-7H-pyrrolo[2,3-d]pyrimidin-7-yl}-4-fluoro-2-[(1E)-5-[({3-fluorobicyclo[1.1.1]pentan-1-yl}methyl)amino]pent-1-en-1-yl]oxolan-3-ol] yielded an IC50 of 0.06 µM.
